Read-outs that look alike come from different tables or passages of the source.
How the values were obtained:
[1] = tested on: PC-3 cell line; test: MTT assay for cell cytotoxicity; format: cell-based, human; conditions: read-out: MTT assay (IC50 ± SD) PC-3
Procedure: (§1) All of synthesis compounds were evaluated cell cytotoxicity by using MTT colorimetric assay on PC-3 and DU-145 cell lines. DU-145 and PC-3 are human hormone-refractory (androgen-independent) prostatic cancer cell lines from American Type Culture Collection (HTB-81™, ATCC, Rockville, Md.)^125 and Bioresource Collection and Research Center (60122, BCRC, Taiwan)^126, respectively. Two of the “classical” cell lines were cultivated in RPMI-1640 medium supplemented with 5% fetal bovine serum (v/v), 100 U/mL penicillin, and […] streptomycin. Approximately 2×10^3 cells were seeded into each well of a 96-well plate and incubated in 5% CO2 at 37° C. for 24 h. To evaluate the in vitro cytotoxicity, all the synthetic compounds were dissolved in DMSO, prepared immediately before the experiments and diluted into the complete medium before being added to each well of a 96-well plate. Each compound was then added to the culture medium for designated various concentrations (0.15, 0.5, 1.5, 5, 15 μM). After 72 h, an amount of 100 μL of MTT (1 mg/mL) was added to each well, and the samples were incubated at 37° C. for 4 h. After removing the MTT solution, 100 μL of DMSO was added to each well and incubated at 37° C. for another 20 mins. The absorbency at 560 nm was measured by using an ELISA reader.
(§2) Results are expressed as mean values of at least three independent experiments. The IC50 values of testing compounds were described in Table 1.

[2] = tested on: DU-145 cell line; test: MTT assay for cell cytotoxicity; format: cell-based, human; conditions: read-out: MTT assay (IC50 ± SD) DU-145
Procedure: as §1, §2

Row | Compound | IC50 ([1]; PC-3 cells, 72 h, at least three independent experiments) | IC50 ([2]; DU-145 cells, 72 h, at least three independent experiments) | IC50 ([1]; Homo sapiens, PC-3, 72 h) | IC50 ([2]; Homo sapiens, DU-145, 72 h)
1 | O=c1c2cc(Cl)ccc2sc2c(NCCO)nc3ccccc3c12 [Compound N9, 10-Chloro-6-(2-ethanolamino)-12H-thiochromeno[2,3-c]quinolin-12-one] | 7.48 ± 3.35 µM | 11.6 ± 7.23 µM |  | 
2 | CC(C)CC(C)Nc1nc2ccccc2c2c(=O)c3cc(Cl)ccc3sc12 (stereo not shown) [Compound N13, 10-Chloro-6-((4-methylpentan-2-yl)amino)-12H-thiochromeno[2,3-c]quinolin-12-one] |  |  | 10.4 ± 2.3 µM | 14.2 ± 1.18 µM
